Data set [1] deals with choroid plexus (ChP) epithelial cells. The data set is described as follows: Calcium imaging of LV ChP explants exposed to plasma. Type of data set: cell-based, mouse. To be noted: LV ChP explant, FoxJ1-Cre::GCaMP6f mice. The method, then:
[…] Imaging and analyses were performed as described (12). Plasma (using citrate as anti-coagulant instead of EDTA, same protocol as described above) was delivered to explants by topical application from a glass capillary needle and serum was delivered to the lateral ventricle of live mice during imaging through the injection cannula. Serum was prepared by collecting blood using the same approach as described above, incubating on ice for 30 min. and then centrifuging for 10 min. at 5,000 g twice to separate the supernatant.

Another data set concerns NKCC1. The data set is described as follows: LiCl ICV pretreatment in adult IVH model, ChP pNKCC1 immunoblot. In kind it is in vivo, mouse. To be noted: adult mice; ICV LiCl 50 mM, 5 μL, 30 min. prior to blood; after 48 hrs. From the text:
P4: pups were anesthetized by hypothermia. An incision was made along the midline of the scalp to expose the skull. A 26 G needle was used to pierce the skull directly above the lateral ventricle. AAV solution or age-matched whole blood was delivered into the lateral ventricle through the piercing using glass capillary pipettes. The skin incision was closed with suture and Vetbond (3M, Minnesota). The pup was warmed and returned to cage after recovery. Whole blood was collected transcardially from littermates anesthetized by hypothermia. Adult: adult intracerebroventricular (ICV) injection followed similar procedures as P4 with the following exceptions: (1) adult mice were anesthetized using isoflurane; (2) a hand drill was used directly above the lateral ventricle; (3) blood donor was anesthetized using ketamine/xylazine.
Tissues were quickly dissected in cold HBSS and homogenized in RIPA buffer supplemented with protease and phosphatase inhibitors. The homogenate was centrifuged at maximum speed for 10 min. to remove cellular debris. Protein concentration was determined by BCA assay (Thermo Scientific 23227). Samples were denatured in 2% SDS supplemented with 2-Mercaptoethanol by heating at 37° C. for 5 min. […] Band intensity was quantified by FIJI.

The test system of data set [2] is intraventricular hemorrhage (IVH) model. As to the kind of experiment: E14.5 IVH model with calcium signaling disruption (LiCl pretreatment or EDTA), MRI and infusion test. In kind it is in vivo, mouse. The text has this:
Timed pregnant mice (E14.5) were anesthetized with isoflurane and kept warm. Following laparotomy, AAV solution or age-matched whole blood was delivered into the lateral ventricle of each embryo (located visually) using glass capillary pipettes. The uterine horns were returned to the abdomen and the incisions sutured. When age-matched whole blood was used, the donor mouse was anesthetized with ketamine/xylazine and warmed. Fresh blood was obtained from the jugular veins with a glass capillary pipette and immediately delivered to the recipient.
Mice were imaged using Bruker BioSpec small animal MRI (7T) at P14 or P25 while under anesthesia by isoflurane. A warm pad was used to maintain body temperature. Breathing rate and heart rate were monitored to reflect the depth of anesthesia. All T2 images were acquired using the following criteria: TE/TR=60/4000; Ave=4; RARE=4; slice thickness=0.6 mm.
Constant aCSF infusion testing was performed as previously described (23). In summary, a single catheter was implanted into the lateral ventricle of a mouse under anesthesia. The catheter infused aCSF at a constant rate and monitored intracranial pressure (ICP). The Marmarou model of cerebrospinal fluid (CSF) dynamics for constant rate infusions were used to calculate parameters describing cerebrospinal fluid (CSF) dynamics by a non-linear least squares fit of the model to the intracranial pressure (ICP) data (62).

In the case of `[Cl-].[Li+]` [LiCl, lithium chloride], the “epifluorescence calcium responses to plasma” value in data set [1] is “disrupted”. Further, in the data set with NKCC1, the “NKCC1 phosphorylation rate (pNKCC1)” value is given as “decreased NKCC1 phosphorylation rate”. Also, the ventriculomegaly entry in data set [2] (E14.5, ICV LiCl 30 min. prior to blood, vs controls, MRI) was “more pronounced ventriculomegaly”. Also, the “ventricular enlargement in two extreme cases” value in data set [2] (E14.5, LiCl pretreatment plus blood) is given as “over 200 fold”. In data set [2] (LiCl pretreatment alone), the “baseline intracranial pressure (ICP)” value is on record as “does not change” and the compliance entry was “does not change”. Further, in data set [2] (LiCl treatment alone), the ventricle size entry is given as “did not affect ventricle size”. Further, the “intracranial pressure (ICP)” value in data set [2] (LiCl-Blood mice compared to LiCl-PBS mice) is recorded as “unaltered”.
Take `O=C(O)CN(CCOCCOCCN(CC(=O)O)CC(=O)O)CC(=O)O` [EGTA, ethylene glycol-bis(β-aminoethyl ether)-N,N,N′,N′-tetraacetic acid]: the “epifluorescence calcium responses to plasma” value in data set [1] was “disrupted”.
Regarding `O=C(O)CN(CCN(CC(=O)O)CC(=O)O)CC(=O)O` [EDTA, ethylenediaminetetraacetic acid], the “epifluorescence calcium responses to plasma” value in data set [1] was “disrupted”. The ventriculomegaly result in data set [2] (E14.5, ICV injection of blood containing EDTA, 3 weeks after the injection) is given as “severe ventriculomegaly”.
`NCCOB(c1ccccc1)c1ccccc1` [2-APB, 2-aminoethoxydiphenyl borate]: the “epifluorescence calcium responses to plasma” value in data set [1] is on record as “disrupted”.
Consider `O=C(O)CN(CC(=O)O)c1ccccc1OCCOc1ccccc1N(CC(=O)O)CC(=O)O` [BAPTA], for which the “epifluorescence calcium responses to plasma” value in data set [1] is “disrupted”.

The values are drawn from patent publication US20240024509A1, “COMPOSITIONS AND METHODS FOR TREATING CEREBROSPINAL FLUID DISORDERS” (The Children's Medical Center Corporation, priority 2021, published 2024).
